The values below are quoted from earlier work in US6761903B2, “Clear oil-containing pharmaceutical compositions containing a therapeutic agent” (Lipocine, Inc., priority 1999, dated 2004).

The conditions of this series: as reported by the manufacturer of the commercial product, rough average or inventors' judgment.
For “1,2 and 1,3-diolein [1,2 and 1,3-diolein (C18:1)]”, the HLB is reported as less than 10.

On to `CCCCC/C=C\C/C=C\CCCCCCCC(=O)OCC` [Ethyl linoleate], for which the HLB is listed as less than 10.

`CCCCCCCC/C=C\CCCCCCCC(=O)OCC` [Ethyl oleate]: the HLB is less than 10.

Regarding `CCCCC/C=C\C/C=C\CCCCCCCC(=O)OCC(O)CO` (stereo not shown) [Glycerol monolinoleate], the HLB is 3-4.

In the case of `CCCCCCCCCCCCCCCC(=O)OCC(O)CO` (stereo not shown) [Glycerol monopalmitate], the HLB is on record as 4.

For `CCCCCCCCCCCCCCCCCC(=O)OCC(O)CO` (stereo not shown) [Glycerol monostearate], the HLB is reported as 5-9.

As for `CC(=O)OCC(O)CO` (stereo not shown) [Glyceryl acetate], the HLB is less than 10.

In the case of `CCCCCCCC(=O)OCC(O)CO` (stereo not shown) [Glyceryl caprylate], the HLB was 5-6.

For `CCCCCCCCCCCC(=O)OCC(O)CO` (stereo not shown) [Glyceryl laurate], the HLB was 4.

For the compound `CCCCCCCCCCCC(=O)OCC(O)CO` (stereo not shown) [Glyceryl monolaurate], the HLB is given as 6.8.

With `CCCCCCCCCCCCCC(=O)OCC(O)CO` (stereo not shown) [Glyceryl monomyristate (C14), Glyceryl monomyristate], the HLB is 3-4.

Turning to `CCCCCCCC/C=C\CCCCCCCC(=O)OCC(O)CO` (stereo not shown) [Glyceryl monooleate (C18:1), Glyceryl monooleate], the HLB was 3-4.

Regarding `CCCCCCCCCCCCCCCCCC(=O)OCC(O)CO` (stereo not shown) [Glyceryl monostearate], the HLB is given as 4.4.

In the case of `CCCCCC[C@@H](O)C/C=C\CCCCCCCC(=O)OCC(O)CO` (stereo partly shown) [Glyceryl ricinoleate], the HLB was 6.

As to `CCCCC/C=C\C/C=C\CCCCCCCC(=O)OC(C)C` [Isopropyl linoleate], the HLB is less than 10.

`CCCCCCCCCCCCCC(=O)OC(C)C` [Isopropyl myristate]: the HLB is listed as less than 10.

Regarding `CCCCCCCCCC(=O)OCC(O)CO` (stereo not shown) [Monocaprin], the HLB is less than 10.

With `CCCCCC(=O)OCC(O)CO` (stereo not shown) [Monocaproin (C6), Monocaproin], the HLB is recorded as less than 10.

Consider `CCCCCCCC(=O)OCC(O)CO` (stereo not shown) [Monocaprylin], for which the HLB is reported as less than 10.

On to `CCCCCCCC/C=C/CCCCCCCC(=O)OCC(O)CO` (stereo not shown) [Monoelaidin (C18:1), Monoelaidin], for which the HLB is reported as less than 10.

In the case of `CCCCCCCCCCCC(=O)OCC(O)CO` (stereo not shown) [Monolaurin], the HLB is on record as less than 10.

Consider `CCCCCC/C=C\CCCCCCCC(=O)OCC(O)CO` (stereo not shown) [Monopalmitolein (C16:1), Monopalmitolein], for which the HLB is less than 10.

`CCCCCCCCCCCCCCCCCC(=O)OCCO` [PEG-1 stearate]: the HLB was 2.

Turning to `CCCCCCCCCCCCOCCOCCOCCOCCO` [PEG-4 lauryl ether], the HLB is 9.7.

As to `CCCCCCCCCCCCCCCCCC(=O)OCC(CO)(CO)COC(=O)CCCCCCCCCCCCCCCCC` [Pentaerythrityl distearate], the HLB was less than 10.

For `CCCCCCCC/C=C\CCCCCCCC(=O)OCC(COC(=O)CCCCCCC/C=C\CCCCCCCC)(COC(=O)CCCCCCC/C=C\CCCCCCCC)COC(=O)CCCCCCC/C=C\CCCCCCCC` [Pentaerythrityl tetraoleate], the HLB is reported as less than 10.

For `CCCCCCCCCCCCCCCCCC(=O)OCC(COC(=O)CCCCCCCCCCCCCCCCC)(COC(=O)CCCCCCCCCCCCCCCCC)COC(=O)CCCCCCCCCCCCCCCCC` [Pentaerythrityl tetrastearate], the HLB was less than 10.

For the compound `CCCCCCCCCC(=O)OCC(C)OC(=O)CCCCCCCCC` (stereo not shown) [Propylene glycol dicaprate], the HLB is reported as greater than 6.

On to `CCCCCCCCCCCC(=O)OCC(C)OC(=O)CCCCCCCCCCC` (stereo not shown) [Propylene glycol dilaurate], for which the HLB is recorded as greater than 6.

On to `CCCCCCCC(=O)OCC(C)OC(=O)CCCCCCC` (stereo not shown) [Propylene glycol dioctanoate], for which the HLB is greater than 6.

In the case of `CCCCCCCCCCCCCCCCCC(=O)OCC(C)OC(=O)CCCCCCCCCCCCCCCCC` (stereo not shown) [Propylene glycol distearate], the HLB is greater than 6.

For the compound `CCCCCCCCCCCCOS(=O)(=O)[O-].[Na+]` [Sodium lauryl sulfate (dodecyl), Sodium lauryl sulfate], the HLB is 40.

Turning to `CCCCCCCC/C=C\CCCCCCCC(=O)[O-].[Na+]` [Sodium oleate], the HLB is listed as 18.

Consider Caprylic/capric glycerides, for which the HLB is on record as less than 10.

As for Dicaprin [Dicaprin (C10)], the HLB was less than 10.

With Dicaproin [Dicaproin (C6)], the HLB was less than 10.

Regarding Dielaidin [Dielaidin (C18:1)], the HLB is less than 10.

Consider Dilinolein [Dilinolein (C18:2)], for which the HLB is recorded as less than 10.

As to Dimyristin [Dimyristin (C14)], the HLB is given as less than 10.

Turning to Dioctanoin [Dioctanoin (C8)], the HLB is given as less than 10.

Regarding Dipalmitin [Dipalmitin (C16)], the HLB is less than 10.

For the compound Dipalmitolein [Dipalmitolein (C16:1)], the HLB was less than 10.

For Distearin, the HLB is on record as less than 10.

As to Glycerol monooleate/linoleate, the HLB is 3-4.

For “Glyceryl citrate/lactate/oleate/linoleate”, the HLB is reported as less than 10.

Consider “Glyceryl dilaurate [Glyceryl dilaurate (C12)]”, for which the HLB is on record as 3-4.

As to Glyceryl dioleate, the HLB is given as 3-4.

In the case of Glyceryl mono-, dioleate, the HLB is less than 10.

For Glyceryl palmitic/stearic, the HLB is listed as less than 10.

For PEG 4-100 monolaurate, the HLB is given as greater than 9.

With PEG 4-100 monooleate, the HLB is reported as greater than 8.

Consider PEG 4-100 monostearate, for which the HLB is reported as greater than 6.

For PEG 100,200,300 monolaurate, the HLB is reported as greater than 10.

As for PEG 100,200,300 monooleate, the HLB was greater than 10.

On to PEG 400 dioleate, for which the HLB is listed as greater than 10.

Take PEG 400 distearate: the HLB was greater than 10.

As for PEG 400-1000 monostearate, the HLB is on record as greater than 10.

As to PEG-2 oleate, the HLB was 4.5.

Consider PEG-2 stearate, for which the HLB was 4.

In the case of PEG-3 oleyl ether, the HLB is less than 10.

As for PEG-4 dilaurate, the HLB is 7.

As for PEG-4 dioleate, the HLB is 6.

Take PEG-4 distearate: the HLB is given as 5.

For the compound PEG-4 oleate, the HLB is 8.3.

Take PEG-4 stearate: the HLB is given as 6.5.

Regarding PEG-5 oleate, the HLB is on record as 9.5.

With PEG-5 oleyl ether, the HLB is on record as less than 10.

As for PEG-5 soya sterol, the HLB is recorded as less than 10.

PEG-5 stearate: the HLB was 9.5.

As for PEG-6 dilaurate, the HLB is reported as 9.8.

Consider PEG-6 dioleate, for which the HLB is reported as 7.2.

As to PEG-6 distearate, the HLB is 6.5.

As for PEG-6 sorbitan monostearate, the HLB is listed as 11.

On to PEG-6 stearate, for which the HLB is given as 9.7.

As for PEG-7 oleate, the HLB is 10.4.

With PEG-8 dioleate, the HLB is listed as 8.8.

For PEG-9 oleate, the HLB is on record as greater than 10.

For the compound PEG-9 stearate, the HLB is listed as greater than 10.

PEG-10 dipalmitate: the HLB was greater than 10.

PEG-10 soya sterol: the HLB is recorded as less than 10.

Take PEG-12 dilaurate: the HLB is listed as 11.7.

With PEG-12 dioleate, the HLB is 10.

Consider PEG-12 distearate, for which the HLB is on record as 10.7.

As to PEG-12 oleate, the HLB is recorded as 14.

Consider PEG-12 ricinoleate, for which the HLB was greater than 10.

As to PEG-12 stearate, the HLB is recorded as 14.

As for PEG-15 stearate, the HLB is reported as 14.

For PEG-20 glyceryl oleate, the HLB is reported as greater than 10.

In the case of PEG-20 soya sterol, the HLB is less than 10.

Take PEG-24 cholesterol ether: the HLB is on record as greater than 10.

As for PEG-25 phyto sterol, the HLB is listed as greater than 10.

Take PEG-30 cholestanol: the HLB is listed as greater than 10.

PEG-30 glyceryl oleate: the HLB is recorded as greater than 10.

For PEG-30 soya sterol, the HLB is greater than 10.

PEG-30 stearate: the HLB is greater than 10.

On to PEG-40 oleate, for which the HLB is given as 17.4.

For PEG-40 stearate, the HLB is greater than 10.

For the compound PEG-50 stearate, the HLB was greater than 10.

Consider PEG-100 oleate, for which the HLB is on record as 18.8.

Take PEG-100 stearate: the HLB is listed as 19.

In the case of PEG-200 oleate, the HLB is listed as greater than 10.

As for PEG-400 dioleate, the HLB is on record as greater than 10.

PEG-400 distearate: the HLB was greater than 10.

Take PEG-400 oleate: the HLB is greater than 10.

Turning to PEG-600 oleate, the HLB is reported as greater than 10.

Regarding “Pentaerythrityl tetracaprylate/tetracaprate”, the HLB is less than 10.

Pentaerythrityl tetraisostearate: the HLB is less than 10.

For the compound Phytosterol, the HLB was less than 10.

As to Polyglyceryl-2 dioleate, the HLB is on record as 7.

Regarding Polyglyceryl-2 isostearate, the HLB is 5-7.

Consider Polyglyceryl-2 oleate, for which the HLB is listed as 5-7.

Take Polyglyceryl-2 stearate: the HLB is recorded as 5-7.

Turning to Polyglyceryl-3 dioleate, the HLB is given as less than 10.

Take Polyglyceryl-3 distearate: the HLB is given as less than 10.

For Polyglyceryl-3 oleate, the HLB was 6.5.

In the case of Polyglyceryl-4 oleate, the HLB was 5-7.

On to Polyglyceryl-4 pentaoleate, for which the HLB is less than 10.

Turning to Polyglyceryl-4 stearate, the HLB is on record as 5-6.
